{"source": "patent US20260256769A1", "about": "“ARTERIOSCLEROSIS SUPPRESSION THROUGH INHIBITION OF TRANSCRIPTION FACTOR FoxO1” (TEIKYO UNIVERSITY, priority 2022, published 2026)", "key": {"[1]": {"test_system": "bone marrow-derived macrophages", "test": "CD11c on the cell surface of bone marrow-derived macrophages by flow cytometry", "assay_type": "cell-based, mice", "details": "vs DMSO-treated control group", "procedure": "Next, we assumed that the transcription factor that binds to the nucleotide sequence of the determined region as above was FoxO1, and a FoxO1 inhibitor AS1842856 was administered to the bone marrow-derived macrophages respectively collected from Syk gene-deficient mice (Syk^del/del) and wild-type mice (Syk^+/+), and CD11c on the cell surface was measured by flow cytometry."}, "[2]": {"test_system": "bone marrow monocytes", "test": "CD11c expression in bone marrow monocytes by real-time PCR after intraperitoneal administration", "assay_type": "in vivo", "details": "wild-type mice, 20 mg/kg intraperitoneally for 2 weeks, vs DMSO-treated group", "procedure": "(§1) In this Example, the following experiment was carried out. First, the FoxO1 inhibitor AS1842856 (20 mg/kg) was intraperitoneally administered to Syk gene-deficient mice (Syk^del/del) and wild-type mice (Syk^+/+) for 2 weeks. The expression of CD11c in collected bone marrow monocytes was measured by real-time PCR, and the CD11c expression (%) in peripheral blood monocytes (CD115 positive cells) was measured by flow cytometry. CD115 is a monocyte marker."}, "[3]": {"test_system": "atherosclerosis lesions in the aortic sinus", "test": "Atherosclerosis lesions in the aortic sinus evaluated using HE staining", "assay_type": "in vivo", "details": "wild-type mice (Syk+/+), 20 mg/kg intraperitoneally for 8 weeks, vs DMSO-treated group", "procedure": "Next, after the FoxO1 inhibitor AS1842856 (20 mg/kg) was intraperitoneally administered to wild-type mice (Syk^+/+) for 8 weeks, atherosclerosis lesions in the aortic sinus were evaluated using HE staining."}, "[4]": {"test_system": "peripheral blood monocytes (CD115 positive cells)", "test": "CD11c expression (%) in peripheral blood monocytes (CD115 positive cells) by flow cytometry after intraperitoneal administration", "assay_type": "in vivo", "details": "wild-type mice, 20 mg/kg intraperitoneally for 2 weeks, vs DMSO-treated group", "procedure": "as §1"}}, "data": [{"smiles": "CCn1cc(C(=O)O)c(=O)c2c(N)c(F)c(NC3CCCCC3)cc21", "note": "[AS1842856, 5-amino-7-(cyclohexylamino)-1-ethyl-6-fluoro-4-oxo-1,4-dihydroquinoline-3-carboxylic acid]", "values": [{"measurement": "expression of CD11c on the cell surface", "setting": "[1]; bone marrow-derived macrophages from Syk gene-deficient mice (Syk del/del)", "result": "no significant difference"}, {"measurement": "expression of CD11c on the cell surface", "setting": "[1]; bone marrow-derived macrophages from wild-type mice (Syk+/+)", "result": "significantly decreased"}, {"measurement": "CD11c expression in bone marrow monocytes", "setting": "[2]", "result": "significantly decreased"}, {"measurement": "atherosclerosis lesions in the aortic sinus", "setting": "[3]", "result": "Atherosclerosis was suppressed"}, {"measurement": "CD11c/CD115 ratio in peripheral blood monocytes", "setting": "[4]", "result": "significantly decreased"}]}]}
